One compound from ChEMBL document CHEMBL6071176, “Development of Phloroglucinol-Linked Tris-Quaternary Ammonium Salt Antimicrobial Peptide Mimics with Low Cytotoxicity and Broad-Spectrum Antibacterial Activity” (J Med Chem, 2024) can be followed below.

One series has as its system Escherichia coli. In words: Antimicrobial activity against Escherichia coli assessed as inhibition of growth incubated for 18 hrs by CLSI guidelines based assay. Format: functional.
A short description of series [1]: Hemolytic activity in sheep red blood cells measured after 1 hr incubation. Format: toxicity, cell-based, Ovis aries, Erythrocyte.
The subject of series [2] is Staphylococcus aureus. As to the kind of experiment: Antibacterial activity against NDM-1 gene-resistant Staphylococcus aureus assessed as inhibition of bacterial growth incubated for 18 hrs by CLSI guidelines based assay. The series is classed as functional.
The subject of series [3] is Staphylococcus aureus. In words: Antibacterial activity against methicillin-resistant Staphylococcus aureus assessed as inhibition of bacterial growth measured immediately after addition in presence of plasma. Format: functional, organism-based.
Series [4] deals with Staphylococcus aureus. As to the kind of experiment: Bactericidal activity against Staphylococcus aureus assessed as bacterial killing in presence of 50% plasma. Format: functional, organism-based.
The subject of series [5] is Staphylococcus aureus. In words: Anti-bacterial activity against 100 times rifampicin induced persistent cells of Staphylococcus aureus assessed as reduction in persistent cells at 32 times of MIC. Format: functional.
Series [6] deals with Staphylococcus aureus. As to the kind of experiment: Anti-microbial activity against Staphylococcus aureus assessed as bacterial growth inhibition in presence of 0.5 to […] ug/ml PG (exogenous bacterial cell membrane component) measured after 18 hrs. Format: functional, organism-based.
In series [7] the test system is Staphylococcus aureus. In words: Anti-microbial activity against Staphylococcus aureus assessed as bacterial growth inhibition in presence of CL (exogenous bacterial cell membrane component) measured after 18 hrs. Format: functional, organism-based.
The next series has as its system Cell membrane. As to the kind of experiment: Induction of membrane damage in Staphylococcus aureus assessed as nucleic acid leakage measured at 0.5 to 2 times of MIC by microplate spectrophotometry. The series is classed as subcellular. Particulars: TDE = time-dependent effect.
Series [8] deals with Staphylococcus aureus. As to the kind of experiment: Induction of ROS level in Staphylococcus aureus assessed as increase in intracellular ROS level by measuring fold increase in fluorescent intensity at 0.5 ug/ml measured after 4.5 hrs by ROS-sensitive fluorescent probe DCF-DA staining based assay. The series is classed as functional. Particulars: dose 0.5 µg/ml.
Series [9] relates to Staphylococcus aureus. As to the kind of experiment: Induction of morphological changes in Staphylococcus aureus assessed as wrinkled/cracked surface at 4 ug/ml incubated for 4 hrs by Scanning electron microscopy (SEM). The series is classed as functional, organism-based. The note with it: dose 4.0 µg/ml.
Series [10] has as its system Staphylococcus aureus. In words: Down-regulation of pyrimidine metabolic pathway genes in Staphylococcus aureus at 0.25 ug/ml and incubated for 4 hrs by Transcriptome analysis. The series is classed as functional, organism-based. Particulars: dose 0.25 µg/ml.
In series [11] the test system is Staphylococcus aureus. As to the kind of experiment: Down-regulation of aspartate/ornithine carbamoyltransferase in Staphylococcus aureus at 0.25 ug/ml and incubated for 4 hrs by Transcriptome analysis. The series is classed as functional, organism-based. The note with it: dose 0.25 µg/ml.
The subject of series [12] is Staphylococcus aureus. As to the kind of experiment: Down-regulation of thiamine pyrophosphate enzyme in Staphylococcus aureus at 0.25 ug/ml and incubated for 4 hrs by Transcriptome analysis. The series is classed as functional, organism-based. Particulars: dose 0.25 µg/ml.
Series [13] concerns Staphylococcus aureus. As to the kind of experiment: Down-regulation of N-terminal TPP binding domain in Staphylococcus aureus at 0.25 ug/ml and incubated for 4 hrs by Transcriptome analysis. Format: functional, organism-based. The note with it: dose 0.25 µg/ml.
The nature of series [14]: Cytotoxicity against human Gastric mucosal cells measured assessed as cell morphology at 32 ug/ml measured after 24 hrs by Electron scanning microscopy. Format: toxicity, cell-based. Particulars: dose 32 µg/ml.
Series [15] in a line: Toxicity in female SPF Kunming mouse assessed as survival rate at 200 mg/kg/day, sc measured after 24 hrs. Format: organism-based. Particulars: in vivo.
Series [16] is described as follows: Toxicity in female SPF Kunming mouse assessed as pathological changes in kidney at 200 mg/kg/day, sc measured after 24 hrs by hematoxylin and eosin staining based assay. Format: organism-based. Particulars: in vivo.
A short description of series [17]: Toxicity in female SPF Kunming mouse assessed as change in HCT count at 20 mg/kg/day, ip measured after 24 hrs. The series is classed as organism-based. Particulars: in vivo.
The nature of series [18]: Toxicity in female SPF Kunming mouse assessed as change in RBC count at 20 mg/kg/day, ip measured after 24 hrs. Particulars: in vivo. The series is classed as organism-based.
Series [19] is described as follows: Toxicity in female SPF Kunming mouse assessed as change in PLT count at 20 mg/kg/day, ip measured after 24 hrs. Particulars: in vivo. The series is classed as organism-based.
Series [20] is described as follows: Toxicity in female SPF Kunming mouse assessed as change in UREA level at 20 mg/kg/day, ip measured after 24 hrs. Format: organism-based. The note with it: in vivo.
The nature of series [21]: Toxicity in female SPF Kunming mouse assessed as change in CREA level at 20 mg/kg/day, ip measured after 24 hrs. The series is classed as organism-based. The note with it: in vivo.

Calls of active or inactive are those of the source. The calls are words filed in the database; no cut-off is given here.

The MIC is the least concentration at which growth counts as inhibited. As a reminder, the HC50 is the concentration giving 50% haemolysis. A low value points to more damage to red cells. By MIC90 is commonly meant an inhibitory concentration at the 90% level, which refers to growth in some studies and to a panel of isolates in others.

`CCCCCCCC[N+](C)(C)CCCCOc1cc(OCCCC[N+](C)(C)CCCCCCCC)cc(OCCCC[N+](C)(C)CCCCCCCC)c1.[Br-].[Br-].[Br-]`: the MIC in the series on Escherichia coli is 2 µg/mL. For the same compound, the HC50 at 1 h in [1] is > 1280 µg/mL. For the same compound, the MIC90 in the series on Staphylococcus aureus [2] was determined as 2 µg/mL. Moreover, the result in the series on Staphylococcus aureus [3], in the series with Staphylococcus aureus [4], with Staphylococcus aureus [7], in the series on Staphylococcus aureus [9], with Staphylococcus aureus [10] and in the series on Staphylococcus aureus [11] was Active. Moreover, the outcome in the series on Staphylococcus aureus [12] and in the series on Staphylococcus aureus [13] was Active. The Activity is 5.7 log10CFU/ml with Staphylococcus aureus [5]; “Tde” with Cell membrane; “Non-Toxic” in series [14]; “Non-Toxic” in series [16]; “Non-Toxic” in [17]; “Non-Toxic” in series [18]. Moreover, the Activity entry in [19], in series [20] and in series [21] was “Non-Toxic” throughout. Also, in the series with Staphylococcus aureus [6], the result was inactive. In addition, the “fold change (FC)” value in the series on Staphylococcus aureus [8] is 3. Besides, in series [15], the survival at 24 h is 100%.
